In PubChem BioAssay AID1259407 (Chemical Carcinogenesis Research Information System (CCRIS), 2018) one finds mutagenic call data, which are given here for six compounds.

This data set concerns CCRIS mutagenicity, Ames/micronucleus/aberration tests. As to the kind of experiment: CCRIS mutagenicity studies.
Setting [1] is: Test System: AMES SALMONELLA TYPHIMURIUM, Strain/Indicator: TA98, Metabolic Activation: NONE, Method: PREINCUBATION
Where [2] appears, read: Test System: AMES SALMONELLA TYPHIMURIUM, Strain/Indicator: TA100, Metabolic Activation: NONE, Method: PREINCUBATION
Setting [3] is: Test System: AMES SALMONELLA TYPHIMURIUM, Strain/Indicator: TA1535, Metabolic Activation: NONE, Method: PREINCUBATION

Active and inactive are the calls of the source. How the calls were made is not given here.

Turning to `CCCCCCCC(=O)CCc1ccc(O)c(OC)c1`, the mutagenic call was “inactive; negative” under setting [1]; “inactive; negative” (Test System: AMES SALMONELLA TYPHIMURIUM, Strain/Indicator: TA98, Metabolic Activation: RAT LIVER S-9, SODIUM PHENOBARBITAL, Method: PREINCUBATION); “inactive; negative” under setting [2]; “inactive; negative” (Test System: AMES SALMONELLA TYPHIMURIUM, Strain/Indicator: TA100, Metabolic Activation: RAT LIVER S-9, SODIUM PHENOBARBITAL, Method: PREINCUBATION); “inactive; negative” under setting [3]; “inactive; negative” (Test System: AMES SALMONELLA TYPHIMURIUM, Strain/Indicator: TA1535, Metabolic Activation: RAT LIVER S-9, SODIUM PHENOBARBITAL, Method: PREINCUBATION). Further, the mutagenic call runs as follows: (Test System: AMES SALMONELLA TYPHIMURIUM, Strain/Indicator: TA1538, Metabolic Activation: NONE, Method: PREINCUBATION) “inactive; negative”; (Test System: AMES SALMONELLA TYPHIMURIUM, Strain/Indicator: TA1538, Metabolic Activation: RAT LIVER S-9, SODIUM PHENOBARBITAL, Method: PREINCUBATION) “inactive; negative”.

With `CCNNCC`, the mutagenic call is, setting by setting: under setting [1], “inactive; negative”; (Test System: AMES SALMONELLA TYPHIMURIUM, Strain/Indicator: TA98, Metabolic Activation: RAT LIVER S-9, PHENOBARBITAL AND BETA-NAPHTHOFLAVONE, Method: PREINCUBATION) “inactive; negative”; under setting [2], “inactive; negative”; (Test System: AMES SALMONELLA TYPHIMURIUM, Strain/Indicator: TA100, Metabolic Activation: NONE, Method: PREINCUBATION (11 HR GROWTH PERIOD FOR BACTERIA)) “active; positive”; (Test System: AMES SALMONELLA TYPHIMURIUM, Strain/Indicator: TA100, Metabolic Activation: RAT LIVER S-9, PHENOBARBITAL AND BETA-NAPHTHOFLAVONE, Method: PREINCUBATION) “inactive; negative”; (Test System: AMES SALMONELLA TYPHIMURIUM, Strain/Indicator: TA100, Metabolic Activation: RAT, LIVER, S-9, PCB, Method: PREINCUBATION (11 HR GROWTH PERIOD FOR BACTERIA)) “inactive; negative”. Besides, the mutagenic call (Test System: AMES SALMONELLA TYPHIMURIUM, Strain/Indicator: TA102, Metabolic Activation: NONE, Method: PREINCUBATION) was “inactive; negative”; the mutagenic call (Test System: AMES SALMONELLA TYPHIMURIUM, Strain/Indicator: TA102, Metabolic Activation: NONE, Method: PREINCUBATION (5 OR 7 HR GROWTH PERIOD FOR BACTERIA)) was “active; positive”; the mutagenic call (Test System: AMES SALMONELLA TYPHIMURIUM, Strain/Indicator: TA102, Metabolic Activation: NONE, Method: PREINCUBATION (11 HR GROWTH PERIOD FOR BACTERIA)) is “inactive; negative”; the mutagenic call (Test System: AMES SALMONELLA TYPHIMURIUM, Strain/Indicator: TA102, Metabolic Activation: RAT LIVER S-9, PHENOBARBITAL AND BETA-NAPHTHOFLAVONE, Method: PREINCUBATION) was “inactive; negative”; the mutagenic call (Test System: AMES SALMONELLA TYPHIMURIUM, Strain/Indicator: TA102, Metabolic Activation: RAT, LIVER, S-9, PCB, Method: PREINCUBATION (5 OR 7 HR GROWTH PERIOD FOR BACTERIA)) was “inactive; negative”; the mutagenic call (Test System: AMES SALMONELLA TYPHIMURIUM, Strain/Indicator: TA104, Metabolic Activation: NONE, Method: PREINCUBATION) was “inactive; negative”. Also, the mutagenic call (Test System: AMES SALMONELLA TYPHIMURIUM, Strain/Indicator: TA104, Metabolic Activation: RAT LIVER S-9, PHENOBARBITAL AND BETA-NAPHTHOFLAVONE, Method: PREINCUBATION) was “inactive; negative”; the mutagenic call under setting [3] is “inactive; negative”; the mutagenic call (Test System: AMES SALMONELLA TYPHIMURIUM, Strain/Indicator: TA1535, Metabolic Activation: RAT LIVER S-9, PHENOBARBITAL AND BETA-NAPHTHOFLAVONE, Method: PREINCUBATION) is “inactive; negative”; the mutagenic call (Test System: AMES SALMONELLA TYPHIMURIUM, Strain/Indicator: TA1537, Metabolic Activation: NONE, Method: PREINCUBATION) is “inactive; negative”; the mutagenic call (Test System: AMES SALMONELLA TYPHIMURIUM, Strain/Indicator: TA1537, Metabolic Activation: RAT LIVER S-9, PHENOBARBITAL AND BETA-NAPHTHOFLAVONE, Method: PREINCUBATION) was “inactive; negative”; the mutagenic call (Test System: E.COLI, Strain/Indicator: WP2UVRA/PKM101, Metabolic Activation: NONE, Method: PREINCUBATION) is “inactive; negative”. Besides, the mutagenic call runs as follows: (Test System: E.COLI, Strain/Indicator: WP2UVRA/PKM101, Metabolic Activation: RAT LIVER S-9, PHENOBARBITAL AND BETA-NAPHTHOFLAVONE, Method: PREINCUBATION) “inactive; negative”; (Test System: E.COLI, Strain/Indicator: WP2UVRA, Metabolic Activation: NONE, Method: PREINCUBATION) “inactive; negative”; (Test System: E.COLI, Strain/Indicator: WP2UVRA, Metabolic Activation: RAT LIVER S-9, PHENOBARBITAL AND BETA-NAPHTHOFLAVONE, Method: PREINCUBATION) “inactive; negative”.

As for `OC1C2OC2c2cccc3c2C1(O)c1ccccc1-3` (stereo not given), the mutagenic call is, setting by setting: (Test System: AMES SALMONELLA TYPHIMURIUM, Strain/Indicator: TM677, Metabolic Activation: NONE, Method: PREINCUBATION) “inactive; negative”; (Test System: AMES SALMONELLA TYPHIMURIUM, Strain/Indicator: TM677, Metabolic Activation: RAT, LIVER, POSTMITOCHONDRIAL SUPERNATANT, AROCLOR 1254, Method: PREINCUBATION) “inactive; negative”.

Turning to `ClC1CO1` (stereo not given), the mutagenic call (Test System: CHINESE HAMSTER V-79, Strain/Indicator: V-79/8-AZAGUANINE, Metabolic Activation: NONE, Method: STANDARD PLATE) was “active; positive”; the mutagenic call (Test System: CHINESE HAMSTER V-79, Strain/Indicator: V-79/OUABAIN, Metabolic Activation: NONE, Method: STANDARD PLATE) is “active; positive”; the mutagenic call (Test System: HUMAN H2E1 CELLS, Strain/Indicator: HPRT/6-THIOGUANINE, Metabolic Activation: NONE, Method: SUSPENSION/MICROTITER PLATE) is “active; positive”.

As to `CC1(C)S[C@@H]2[C@H](NC(=O)Cc3ccccc3)C(=O)N2[C@H]1C(=O)O`, the mutagenic call is, setting by setting: (Test System: AMES SALMONELLA TYPHIMURIUM, Strain/Indicator: TA98, Metabolic Activation: NONE, Method: STANDARD PLATE) “inactive; negative”; (Test System: AMES SALMONELLA TYPHIMURIUM, Strain/Indicator: TA100, Metabolic Activation: NONE, Method: STANDARD PLATE) “inactive; negative”; (Test System: AMES SALMONELLA TYPHIMURIUM, Strain/Indicator: TA1537, Metabolic Activation: NONE, Method: STANDARD PLATE) “inactive; negative”; (Test System: E. COLI, Strain/Indicator: WP2 (HCR), Metabolic Activation: NONE, Method: STANDARD PLATE) “inactive; negative”.

For `c1ccc2c(c1)Oc1ccccc1S2`, the mutagenic call (Test System: AMES SALMONELLA TYPHIMURIUM, Strain/Indicator: TA97, Metabolic Activation: HAMSTER, LIVER, S-9, AROCLOR 1254 (10 OR 30%), Method: PREINCUBATION) is “inactive; negative”; the mutagenic call (Test System: AMES SALMONELLA TYPHIMURIUM, Strain/Indicator: TA97, Metabolic Activation: NONE, Method: PREINCUBATION) is “inactive; negative”; the mutagenic call (Test System: AMES SALMONELLA TYPHIMURIUM, Strain/Indicator: TA97, Metabolic Activation: RAT, LIVER, S-9, AROCLOR 1254 (10 OR 30%), Method: PREINCUBATION) was “inactive; negative”; the mutagenic call (Test System: AMES SALMONELLA TYPHIMURIUM, Strain/Indicator: TA98, Metabolic Activation: HAMSTER, LIVER, S-9, AROCLOR 1254 (10 OR 30%), Method: PREINCUBATION) was “inactive; negative”; the mutagenic call under setting [1] was “inactive; negative”; the mutagenic call (Test System: AMES SALMONELLA TYPHIMURIUM, Strain/Indicator: TA98, Metabolic Activation: RAT, LIVER, S-9, AROCLOR 1254 (10 OR 30%), Method: PREINCUBATION) was “inactive; negative”. Further, the mutagenic call is, setting by setting: (Test System: AMES SALMONELLA TYPHIMURIUM, Strain/Indicator: TA100, Metabolic Activation: HAMSTER, LIVER, S-9, AROCLOR 1254 (10 OR 30%), Method: PREINCUBATION) “inactive; negative”; under setting [2], “inactive; negative”; (Test System: AMES SALMONELLA TYPHIMURIUM, Strain/Indicator: TA100, Metabolic Activation: RAT, LIVER, S-9, AROCLOR 1254 (10 OR 30%), Method: PREINCUBATION) “inactive; negative”; (Test System: AMES SALMONELLA TYPHIMURIUM, Strain/Indicator: TA1535, Metabolic Activation: HAMSTER, LIVER, S-9, AROCLOR 1254 (10 OR 30%), Method: PREINCUBATION) “inactive; negative”; under setting [3], “inactive; negative”; (Test System: AMES SALMONELLA TYPHIMURIUM, Strain/Indicator: TA1535, Metabolic Activation: RAT, LIVER, S-9, AROCLOR 1254 (10 OR 30%), Method: PREINCUBATION) “inactive; negative”.
